Source: patent US4728638A, “Somatostatine derivatives” (Sandoz Ltd., priority 1985, dated 1988)

Test system: GH-secretion
Assay: GH-secretion inhibiting test: depression of serum GH-levels in the rat (radio-immuno-assay)
Type: in vivo
Settings: male rats, s.c.
Protocol: This test is carried out employing male rats. The test-substance is administered at varying, logarithmically staggered doses employing at least 5 rats per dose. 1, 6 and 18 hours after the administration of the test substance blood is taken. The determination of the serum GH-level is effected by radio-immuno-assay. The compounds of formula I are active in this test when administered at a dosage in the range of from 0.01 to 50 μg/kg s.c.

SMILES: C[C@H](N)C(=O)NCC(=O)N[C@H]1CSSC[C@@H](C(=O)O)NC(=O)[C@H](CO)NC(=O)[C@H]([C@@H](C)O)NC(=O)[C@H](Cc2ccccc2)NC(=O)[C@H]([C@@H](C)O)NC(=O)[C@H](CCCCN)NC(=O)[C@H](Cc2c[nH]c3ccccc23)NC(=O)[C@H](Cc2ccccc2)NC(=O)[C@H](Cc2ccccc2)NC(=O)[C@H](CC(N)=O)NC(=O)[C@H](CCCCN)NC1=O [natural somatostatine, somatostatine]
- ID50 in the GH-secretion inhibiting test after 1 hour (blood taken 1 hour after administration): 0.95 mg/kg
- ID50 in the GH-secretion inhibiting test after 6 hours (blood taken 6 hours after administration): extremely high and therefore not determinable
